According to PubChem BioAssay (NCI):
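Test compounds were applied to cells in 96-well plates for 48 hours at 5 doses. GI50 = concentration required for 50% inhibition of growth. TGI is the concentration that stops growth completely.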

Columns and labels:
Assay in all cases: growth of human tumour cells (NCI), 48 h
786-0 renal = tested on: 786-0 renal
A549 NSCLC = tested on: A549 NSCLC
CCRF-CEM leukemia = tested on: CCRF-CEM leukemia
EKVX NSCLC = tested on: EKVX NSCLC
HOP-62 NSCLC = tested on: HOP-62 NSCLC
HOP-92 NSCLC = tested on: HOP-92 NSCLC
KM12 colon = tested on: KM12 colon
MOLT-4 leukemia = tested on: MOLT-4 leukemia
NCI-H460 lung = tested on: NCI-H460 lung
OVCAR-8 ovarian = tested on: OVCAR-8 ovarian
RPMI-8226 leukemia = tested on: RPMI-8226 leukemia
RXF 393 renal = tested on: RXF 393 renal
SF-539 CNS = tested on: SF-539 CNS
SK-MEL-2 melanoma = tested on: SK-MEL-2 melanoma
SNB-75 CNS = tested on: SNB-75 CNS
TK-10 renal = tested on: TK-10 renal
UACC-62 melanoma = tested on: UACC-62 melanoma
UO-31 renal = tested on: UO-31 renal

| SMILES | TGI (786-0 renal) [µM] | TGI (A549 NSCLC) [µM] | TGI (CCRF-CEM leukemia) [µM] | TGI (EKVX NSCLC) [µM] | TGI (HOP-62 NSCLC) [µM] | TGI (HOP-92 NSCLC) [µM] | TGI (KM12 colon) [µM] | TGI (MOLT-4 leukemia) [µM] | TGI (NCI-H460 lung) [µM] | TGI (OVCAR-8 ovarian) [µM] | TGI (RPMI-8226 leukemia) [µM] | TGI (RXF 393 renal) [µM] | TGI (SF-539 CNS) [µM] | TGI (SK-MEL-2 melanoma) [µM] | TGI (SNB-75 CNS) [µM] | TGI (TK-10 renal) [µM] | TGI (UACC-62 melanoma) [µM] | TGI (UO-31 renal) [µM] | GI50 (RPMI-8226 leukemia) [µM] |
| --- | --- | --- | --- | --- | --- | --- | --- | --- | --- | --- | --- | --- | --- | --- | --- | --- | --- | --- | --- |
| COc1cccc2c1C(=O)c1ccc3cc(CCl)cc(O)c3c1C2=O | 0.432 | 1.36 | 1.98 | 1.57 | 1.08 | 1.73 | 0.339 | 2.88 | 0.768 | 0.612 | 1.37 | 0.756 | 0.701 | 1.1 | 1.67 | 0.823 | 0.687 | 1.14 | – |
| O=C(/C=C/c1ccccc1)CSc1nc2ccc(I)cc2c(=O)n1Cc1ccccc1 | 35.9 | > 100 | > 59.2 | > 37.2 | 59.1 | 55.2 | > 100 | 35.2 | > 100 | > 100 | > 88 | > 94.5 | > 100 | 99 | > 95.7 | > 84.6 | > 100 | 0.553 | – |
| O=C1Nc2ccccc2/C1=C/c1c(Cl)[nH]c2ccc(O)cc12 | 25.9 | > 37.8 | 10.1 | 22.5 | 19.1 | 45 | 15.6 | 40.1 | 13.9 | 12.8 | 14.1 | 9.02 | 2.16 | 12.7 | 12.4 | 37.1 | 6.04 | 28.2 | – |
| Cn1c(=O)c2c(ncn2CCCCOc2ccc3c(c2)[n+]([O-])nc(N)[n+]3[O-])n(C)c1=O | > 100 | > 100 | > 100 | > 100 | > 100 | 33.4 | > 100 | > 100 | > 100 | > 100 | > 100 | 80.4 | 70 | > 100 | 90 | > 100 | 42 | > 100 | – |
| COc1cccc(C2SCC(=O)N2c2ccc(-n3c(-c4ccccc4)nc4ccccc4c3=O)cc2)c1OC (configuration not stated) | > 100 | > 100 | > 100 | > 100 | > 100 | > 100 | > 100 | > 100 | > 100 | > 100 | > 100 | > 100 | > 100 | > 100 | > 100 | > 100 | > 100 | > 100 | – |
| CCCCOCCOC1=CC(=O)c2c(O)ccc(O)c2C1=O | 3.03 | 3.41 | 4.04 | 3.08 | 1.8 | 4.44 | 3.14 | 9.38 | 3.43 | – | > 10 | 3.02 | 2.94 | 3.26 | 2.91 | 4.8 | 2.98 | 3.01 | – |
| CCOC(=O)/C=C(\C(=O)OCC)n1ccc(=O)n(CC(=O)OCC)c1=O | 4.1 | 32.3 | 3.29 | 35.5 | 38.7 | 3.06 | 30.8 | 4.62 | 32.2 | 14.3 | 7.67 | 2.97 | 32.3 | 29.1 | 24.5 | 6.04 | 19.2 | 17.5 | 2.81 |
| COC(=O)[C@@]12C(=O)C(C)C(=O)[C@]1(C)C(C)=C[C@H]1[C@]3(C=O)CC[C@H](OC(C)=O)C(C)(C)[C@H]3CC[C@@]12C (some centres not stated) | > 100 | > 100 | 63.8 | > 100 | > 100 | > 100 | > 100 | 69.1 | > 100 | > 100 | > 100 | > 100 | > 100 | > 100 | > 100 | > 100 | > 100 | > 100 | – |
| CCOC(=O)Nc1nn(C)c(=NCc2ccccc2)s1 | > 100 | > 100 | > 100 | > 100 | > 100 | > 100 | > 100 | > 100 | > 100 | – | > 100 | > 100 | > 100 | > 100 | > 100 | > 100 | > 100 | > 100 | – |
| O=C1C(=C(I)I)c2ccccc2-c2ccccc21 | 4.33 | 34.7 | 2.48 | 9.45 | 24.3 | 5.66 | 24.6 | 6.48 | 33.9 | 7.72 | 3.95 | 3.22 | 3.61 | 19.7 | 12.8 | 3.86 | 10.7 | 4.7 | – |
| O=c1oc2c(ccc3ccccc32)cc1C1=CSC2=NCCN12 | > 100 | > 100 | > 100 | > 100 | > 100 | 84.3 | > 100 | > 100 | > 100 | > 100 | > 100 | > 100 | > 100 | > 100 | > 100 | > 100 | > 100 | > 100 | – |
